Bridge positions count the residues as written; N and C are the ends. Peptide text beside a SMILES is read from it.
Assays:
Transcription factor AP1 [1] = target: T1, Transcription factor AP1 (Homo sapiens, UniProt P01100+P05412); test: Inhibition of Fos-Jun dimer formation (unknown origin) by EMSA method; format: protein-complex assay
Transcription factor Jun [2] = target: T2, Transcription factor Jun (Homo sapiens, UniProt P05412); test: Inhibition of AP-1-mediated transcriptional activation in human Jurkat cells by luciferase reporter gene assay; format: cell-based
Transcription factor Jun [3] = target: T2, Transcription factor Jun; test: Inhibition of UVB-induced AP-1 activation (unknown origin) by cell-based assay
Transcription factor Jun [4] = target: T2, Transcription factor Jun; test: Inhibition of AP-1-mediated transcriptional activation in human HeLa cells at 1 ug/ml; format: cell-based
Transcription factor Jun [5] = target: T2, Transcription factor Jun; test: Inhibition of AP-1-mediated transcriptional activation in human HeLa cells at 10 ug/ml; format: cell-based
[6] = target: Nuclear factor NF-kappa-B complex (Homo sapiens, UniProt Q00653+P19838+Q04206); test: Inhibition of NF-kappaB-mediated transcriptional activation in human Jurkat cells by luciferase reporter gene assay; format: cell-based
[7] = target: Transcription factor Jun (Mus musculus) (UniProt P05627); test: Inhibition of AP-1-mediated transcriptional activation in lipopolysaccharide-stimulated mouse RAW 264.7 cells assessed ratio of luciferase activity normalized to Renilla luciferase activity by luciferase reporter gene assay
Transcription factor Jun [8] = target: T2, Transcription factor Jun; test: Inhibition of AP-1 (unknown origin) expressed in TPA-stimulated mouse NIH3T3 cells by luciferase reporter gene assay; format: cell-based
Transcription factor Jun [9] = target: T2, Transcription factor Jun; test: Inhibition of AP-1 bZIP domain DNA binding activity (unknown origin) by ELISA
Transcription factor Jun [10] = target: T2, Transcription factor Jun; test: Inhibition of AP-1 (unknown origin) by FRET assay
Transcription factor AP1 [11] = target: T1, Transcription factor AP1; test: Inhibition of Fos-Jun dimer formation (unknown origin); format: protein-complex assay
Transcription factor Jun [12] = target: T2, Transcription factor Jun; test: Inhibition of AP-1-mediated transcriptional activation in HEK293 cells by luciferase reporter gene assay; format: cell-based
Rattus norvegicus = species: Rattus norvegicus; test: Antiinflammatory activity in adjuvant-induced arthritis rat model assessed as reduction in swelling in noninjected foot; format: functional

T1 sequence (P05412 whole entry): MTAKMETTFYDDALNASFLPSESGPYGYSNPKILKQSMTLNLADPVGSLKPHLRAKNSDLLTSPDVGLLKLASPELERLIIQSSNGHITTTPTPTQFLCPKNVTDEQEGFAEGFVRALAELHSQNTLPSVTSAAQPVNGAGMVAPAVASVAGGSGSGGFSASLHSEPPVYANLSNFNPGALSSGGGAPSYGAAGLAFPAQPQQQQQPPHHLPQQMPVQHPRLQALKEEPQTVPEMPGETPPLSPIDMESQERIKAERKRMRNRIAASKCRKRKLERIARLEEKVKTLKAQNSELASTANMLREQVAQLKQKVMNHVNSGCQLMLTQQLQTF
T1 sequence (P01100 whole entry): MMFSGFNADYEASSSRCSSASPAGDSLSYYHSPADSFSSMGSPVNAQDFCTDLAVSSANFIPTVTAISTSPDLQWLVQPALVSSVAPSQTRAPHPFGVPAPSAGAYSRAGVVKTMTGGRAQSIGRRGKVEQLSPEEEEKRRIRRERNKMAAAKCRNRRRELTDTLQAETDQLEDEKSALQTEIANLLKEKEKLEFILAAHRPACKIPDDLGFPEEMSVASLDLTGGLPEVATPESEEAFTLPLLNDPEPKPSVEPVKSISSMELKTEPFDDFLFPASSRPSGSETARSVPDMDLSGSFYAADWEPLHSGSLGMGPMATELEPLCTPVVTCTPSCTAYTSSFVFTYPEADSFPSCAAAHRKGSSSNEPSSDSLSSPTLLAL
T2 sequence (P05412 whole entry): as the sequence (P05412 whole entry) above
Transcription factor Jun (Mus musculus), sequence (P05627 whole entry): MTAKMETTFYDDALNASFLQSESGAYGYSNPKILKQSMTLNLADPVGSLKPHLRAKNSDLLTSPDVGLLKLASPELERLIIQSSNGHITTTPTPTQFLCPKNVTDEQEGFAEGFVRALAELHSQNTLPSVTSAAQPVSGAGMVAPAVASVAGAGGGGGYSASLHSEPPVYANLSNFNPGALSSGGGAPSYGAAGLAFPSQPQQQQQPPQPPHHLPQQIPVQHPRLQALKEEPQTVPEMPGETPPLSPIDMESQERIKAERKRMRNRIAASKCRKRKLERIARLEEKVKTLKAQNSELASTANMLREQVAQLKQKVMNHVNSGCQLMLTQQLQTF
Nuclear factor NF-kappa-B complex, sequence (P19838 1-433 limits assumed): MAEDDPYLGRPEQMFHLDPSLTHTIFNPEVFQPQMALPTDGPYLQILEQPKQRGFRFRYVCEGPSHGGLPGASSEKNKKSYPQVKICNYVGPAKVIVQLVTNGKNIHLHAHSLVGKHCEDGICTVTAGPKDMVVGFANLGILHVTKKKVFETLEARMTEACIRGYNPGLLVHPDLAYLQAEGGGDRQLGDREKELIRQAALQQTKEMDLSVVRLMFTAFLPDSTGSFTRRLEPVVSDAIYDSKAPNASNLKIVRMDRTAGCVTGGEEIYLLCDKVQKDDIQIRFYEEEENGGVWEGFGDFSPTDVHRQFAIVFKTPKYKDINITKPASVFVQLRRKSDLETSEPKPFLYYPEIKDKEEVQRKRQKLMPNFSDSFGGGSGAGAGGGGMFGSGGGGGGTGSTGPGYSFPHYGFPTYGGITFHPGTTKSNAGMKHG
Nuclear factor NF-kappa-B complex, sequence (Q00653 1-454 limits assumed): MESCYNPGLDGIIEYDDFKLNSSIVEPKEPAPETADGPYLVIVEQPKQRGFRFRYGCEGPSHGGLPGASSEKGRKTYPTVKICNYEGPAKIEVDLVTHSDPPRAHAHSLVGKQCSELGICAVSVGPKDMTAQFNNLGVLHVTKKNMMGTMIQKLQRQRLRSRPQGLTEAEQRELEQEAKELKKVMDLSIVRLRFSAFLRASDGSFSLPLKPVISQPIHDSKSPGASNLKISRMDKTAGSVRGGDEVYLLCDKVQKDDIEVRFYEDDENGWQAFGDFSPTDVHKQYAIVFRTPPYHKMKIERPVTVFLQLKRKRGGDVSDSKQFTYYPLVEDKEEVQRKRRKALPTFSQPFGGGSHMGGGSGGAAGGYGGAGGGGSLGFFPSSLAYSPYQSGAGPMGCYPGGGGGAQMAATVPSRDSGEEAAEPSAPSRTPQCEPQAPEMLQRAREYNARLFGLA
Nuclear factor NF-kappa-B complex, sequence (Q04206 whole entry): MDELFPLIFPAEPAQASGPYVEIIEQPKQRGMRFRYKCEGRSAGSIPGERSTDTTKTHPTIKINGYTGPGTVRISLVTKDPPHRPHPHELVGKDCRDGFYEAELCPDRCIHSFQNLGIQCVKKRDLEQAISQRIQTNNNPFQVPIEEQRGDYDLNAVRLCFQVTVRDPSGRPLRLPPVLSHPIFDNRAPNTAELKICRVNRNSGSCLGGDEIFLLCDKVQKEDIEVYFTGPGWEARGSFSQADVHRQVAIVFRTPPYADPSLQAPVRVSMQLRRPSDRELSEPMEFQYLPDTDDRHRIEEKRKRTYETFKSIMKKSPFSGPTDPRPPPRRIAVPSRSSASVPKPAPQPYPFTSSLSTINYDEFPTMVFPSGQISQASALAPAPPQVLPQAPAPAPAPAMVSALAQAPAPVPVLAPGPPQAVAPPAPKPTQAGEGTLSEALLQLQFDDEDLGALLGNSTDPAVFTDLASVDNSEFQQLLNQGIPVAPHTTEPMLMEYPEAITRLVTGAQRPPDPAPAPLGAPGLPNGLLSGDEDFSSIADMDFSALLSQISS

CC1(C)CC[C@]2(C(=O)O)CC[C@]3(C)C(=CC[C@@H]4[C@@]5(C)CC[C@H](O[C@@H]6O[C@H](C(=O)O)[C@@H](O)[C@H](O[C@@H]7OC[C@H](O)[C@H](O)[C@H]7O)[C@H]6O)C(C)(C)[C@@H]5CC[C@]43C)[C@@H]2C1
IC50 (Transcription factor AP1 [1]): 130000 nM

Cc1ccc(/C=C/C(=O)/C=C(O)/C=C/c2ccc(C)cc2)cc1
IC50 (Transcription factor AP1 [1]): 8980 nM

CCOC(=O)c1cnc(N(C)N2C(=O)C=C(C)C2=O)nc1CC
IC50 (Transcription factor Jun [2]): 35 nM

COC(=O)C1=CO[C@@H](O[C@@H]2O[C@H](CO)[C@@H](O)[C@H](O)[C@H]2O)[C@H]2[C@@H]1[C@@H]1O[C@@H]1[C@]2(O)C(=O)O/C=C(\C(=O)O)c1ccc(O)c(OC)c1
IC50 (Transcription factor Jun [3]): 29000 nM

O=C(Nc1cc(C(F)(F)F)cc(C(F)(F)F)c1)c1cc(I)ccc1O
inhibition (Transcription factor Jun [4]): 25.4% | inhibition (Transcription factor Jun [5]): 82.4%

CC1=CC(=O)N(Nc2ncc(-c3coc(C)n3)c(-c3cccs3)n2)C1=O
IC50 (Transcription factor Jun [2]): 760 nM

O=C(Nc1cc(C(F)(F)F)cc(C(F)(F)F)c1)c1cnc(F)nc1C(F)(F)F
IC50 [6]: 400 nM

Cc1nc(Cl)ncc1C(=O)Nc1cc(Cl)cc(Cl)c1
IC50 (Transcription factor Jun [2]): 500 nM

C[C@@]12CC[C@@H]3[C@@](CC1=O)(C2)[C@@H](O)C[C@H]1[C@@]3(C)[C@@H](O)CC[C@@]1(C)C(=O)O
Ratio [7]: 2.98

C[C@@]12CC[C@@H]3[C@@](CC[C@H]4[C@@]3(C)CCC[C@@]4(C)C(=O)O)(C/C1=N\O)C2
Ratio [7]: 4.87

O=C(Nc1cc(C(F)(F)F)cc(C(F)(F)F)c1)c1cc(Cl)ccc1O
inhibition (Transcription factor Jun [4]): 42.4% | inhibition (Transcription factor Jun [5]): 89.1%

O=C(Nc1ccc(C(F)(F)F)cc1C(F)(F)F)c1cc(C(F)(F)F)nc(Cl)n1
IC50 (Transcription factor Jun [2]): > 10000 nM

O=C(Nc1cc(C(F)(F)F)cc(C(F)(F)F)c1)c1cc(Br)ccc1O
inhibition (Transcription factor Jun [4]): 48.4% | inhibition (Transcription factor Jun [5]): 91.2%

CCOC(=O)c1cnc(N(C)N2C(=O)C=C(C)C2=O)nc1C(F)(F)F
IC50 (Transcription factor Jun [2]): 300 nM

O=C(Nc1cc(C(F)(F)F)cc(C(F)(F)F)c1)c1cnc(Cl)nc1C(F)(F)F
IC50 [6]: 50 nM | IC50 (Transcription factor Jun [2]): 50 nM

CC1=CC(=O)N(Nc2ncc(C(=O)OC(C)(C)C)c(C(F)(F)F)n2)C1=O
IC50 (Transcription factor Jun [2]): 210 nM

C[C@@]12CCC[C@@](C)(C(=O)O)[C@H]1CC[C@@]13CC(=O)O[C@@](CO)(CC[C@H]12)C3
Ratio [7]: 2.58

O=C(Nc1cc(C(F)(F)F)cc(C(F)(F)F)c1)c1cnc(Cl)cn1
IC50 [6]: 4000 nM | IC50 (Transcription factor Jun [2]): 4000 nM

C[C@@]12CC[C@@H]3[C@@](CC[C@H]4[C@@]3(C)CCC[C@@]4(C)C(=O)O)(COC1=O)C2
Ratio [7]: 1.88

O=C(O)CCc1cc(C(=O)c2ccc(OC3CCCC3)cc2O)ccc1OCc1ccc2c(O)noc2c1
IC50 (Transcription factor Jun [8]): 10000 nM | IC50 (Transcription factor Jun [9]): 10000 nM

CCOC(=O)c1cnc(NN2C(=O)C=C(C)C2=O)nc1-c1ccc(C)s1
IC50 (Transcription factor Jun [2]): 45 nM

CC[C@](C)(O)C(=O)O[C@H]1C(=O)O[C@@H]2C[C@H]3C(C)=CC(=O)[C@@H](O)[C@]3(C)[C@H]3[C@@]4(O)OC[C@]32[C@@H]1[C@@H](C)[C@H]4O [GLAUCARUBINONE]
EC50 (Transcription factor Jun [10]): 1490 nM

CC(Cc1ccc(O)c(O)c1)C(C)Cc1ccc(O)c(O)c1 (stereo not given) [NORDIHYDROGUAIARETIC ACID]
IC50 (Transcription factor AP1 [11]): 7.9 nM

CC(=O)c1ccc(-n2c(-c3cc(-c4ccncc4)c(N4CCOCC4)s3)nc3ccccc3c2=O)cc1
IC50 (Transcription factor Jun [12]): 5000 nM

CNc1nc(C)c(-c2nc3ccccc3c(=O)n2-c2ccccc2C)s1
IC50 (Transcription factor Jun [12]): 5500 nM

CCOC(=O)c1cnc(-c2ccccc2)nc1NN1C(=O)C=C(C)C1=O
IC50 [6]: 100 nM | IC50 (Transcription factor Jun [2]): 100 nM

CC(C)COc1ccc(C(=O)c2ccc(OCC(C)C)c(CCC(=O)O)c2)cc1
IC50 (Transcription factor Jun [8]): 5000 nM

COc1cc(CC(C)C(C)Cc2ccc(O)c(OC)c2)ccc1O (stereo not given) [DIHYDROGUAIARETIC ACID]
IC50 (Transcription factor AP1 [11]): 210 nM

O=C(Nc1cc(Cl)cc(Cl)c1)c1cc(I)ccc1O
inhibition (Transcription factor Jun [5]): 75.4%

CCOC(=O)c1cnc(-c2cccs2)nc1NN1C(=O)C=C(C)C1=O
IC50 [6]: 20 nM | IC50 (Transcription factor Jun [2]): 20 nM

CC(=O)N[C@H]1CSSC[C@@H](C(N)=O)NC(=O)CNC(=O)[C@H](CC(=O)O)NC(=O)[C@H](C)NC(=O)[C@H](CC(C)C)NC(=O)[C@H](CC(=O)O)NC(=O)[C@H](CC(C)C)NC(=O)[C@H](CCC(N)=O)NC(=O)CNC1=O (Ac-CGQLDLADGC-NH2; disulfide 1-10)
IC50 (Transcription factor Jun [9]): 64000 nM

Cc1ccccc1-n1c(-c2sc(Nc3ccccc3)nc2C)nc2ccccc2c1=O
IC50 (Transcription factor Jun [12]): 5500 nM

O=C(Nc1cc(Cl)cc(Cl)c1)c1cc(Br)ccc1O
inhibition (Transcription factor Jun [4]): 39.3% | inhibition (Transcription factor Jun [5]): 83.8%

O=C(Nc1cc(Cl)cc(Cl)c1)c1cc(Cl)ccc1O
inhibition (Transcription factor Jun [4]): 22.7% | inhibition (Transcription factor Jun [5]): 74.8%

COC1=C(C)[C@@H]2CC(=O)O[C@@H]3C[C@H]4[C@H](C)[C@@H](O)[C@H](O)C(=O)[C@]4(C)[C@@H](C1=O)[C@@]32C [NOTHOSPONDIN]
EC50 (Transcription factor Jun [10]): 130 nM

COc1cccc(/C=C/C(=O)/C=C(O)/C=C/c2cccc(OC)c2)c1
IC50 (Transcription factor AP1 [1]): 5400 nM

O=C(Nc1cc(C(F)(F)F)cc(C(F)(F)F)c1)c1nnc(Cl)cc1C(F)(F)F
IC50 [6]: 10000 nM | IC50 (Transcription factor Jun [2]): 10000 nM

Cc1nc(Nc2ccc(Cl)cc2)sc1-c1nc2ccccc2c(=O)n1-c1ccc(Cl)cc1
IC50 (Transcription factor Jun [12]): 1200 nM

C[C@@]12CC[C@H]3[C@]4(C)CCC[C@@](C)(C(=O)O)[C@H]4C[C@H](O)[C@]3(CC(=O)O1)C2
Ratio [7]: 2.39

CCOC(=O)c1cnc(NN2C(=O)C=C(C)C2=O)nc1CC
IC50 (Transcription factor Jun [2]): 400 nM

C[C@@]12CCC[C@@](C)(C(=O)O)[C@H]1CC[C@]13CC(=O)O[C@](C)(C1)[C@H](O)C[C@H]32
Ratio [7]: 2.73

CC(=O)c1cnc(NN2C(=O)C=C(C)C2=O)nc1C(F)(F)F
IC50 (Transcription factor Jun [2]): 4400 nM

O=C(Nc1cc(C(F)(F)F)cc(C(F)(F)F)c1)c1ccc(Cl)nn1
IC50 [6]: 1700 nM | IC50 (Transcription factor Jun [2]): 1700 nM

CCOC(=O)c1cnc(C(F)(F)F)nc1NN1C(=O)C=C(C)C1=O
IC50 [6]: 1000 nM | IC50 (Transcription factor Jun [2]): 1000 nM

Cc1cc(C(=O)Nc2ccc(C(F)(F)F)cc2C(F)(F)F)nc(Cl)n1
IC50 (Transcription factor Jun [2]): > 10000 nM

COc1cccc2nc(-c3cccs3)nc(NN3C(=O)C=C(C)C3=O)c12 [AS-602868]
IC50 (Transcription factor Jun [2]): 8 nM | inhibition (INH) (Rattus norvegicus): 65%

CC1=CC[C@@H]2[C@](CC#N)(CC[C@H]3[C@@]2(C)CCC[C@@]3(C)C(=O)O)C1
Ratio [7]: 2.22

C[C@@]12CC[C@@H]3[C@@](C/C1=N\O)(C2)[C@H](O)C[C@H]1[C@@]3(C)[C@@H](O)CC[C@@]1(C)C(=O)O
Ratio [7]: 2.69

O=C(Nc1cc(C(F)(F)F)cc(C(F)(F)F)c1)c1cnc(Cl)nc1-c1ccccc1
IC50 [6]: 400 nM | IC50 (Transcription factor Jun [2]): 400 nM

CCOC(=O)c1cnc(NN2C(=O)C=C(C)C2=O)nc1C(F)(F)F
IC50 (Transcription factor Jun [2]): 2000 nM

C[C@@]12CC[C@@H]3[C@@](CC[C@H]4[C@@]3(C)[C@@H](O)CC[C@@]4(C)C(=O)O)(COC1=O)C2
Ratio [7]: 2.66

C[C@@]12CC[C@@H]3[C@@](CC[C@H]4[C@@]3(C)CCC[C@@]4(C)C(=O)O)(CC(=O)O1)C2
Ratio [7]: 2.38

C[C@@H]1C[C@H]2[C@@H]3CCC4=CC(=O)C=C[C@]4(C)[C@@]3(F)[C@@H](O)C[C@]2(C)[C@@]1(O)C(=O)CO
Ratio [7]: 2.33

COc1ccc2nc(-c3cccs3)nc(NN3C(=O)C=C(C)C3=O)c2c1
IC50 (Transcription factor Jun [2]): 3 nM

CC1=C[C@@]2(CC#N)CC[C@H]3[C@@](C)(CCC[C@@]3(C)C(=O)O)[C@@H]2CC1
Ratio [7]: 2.85

CCc1nc(NN2C(=O)C=C(C)C2=O)ncc1-c1coc(C)n1
IC50 (Transcription factor Jun [2]): 830 nM

CNc1nc(C)c(-c2nc3ccccc3c(=O)n2-c2ccc(Cl)cc2)s1
IC50 (Transcription factor Jun [12]): 1200 nM

C[C@@]12CC[C@H]3[C@]4(C)CCC[C@@](C)(C(=O)O)[C@H]4C[C@H](O)[C@]3(CC1=O)C2
Ratio [7]: 2.69

C[C@H]1[C@H](C)CC[C@]2(COC(=O)c3ccccc3C(=O)O)CC[C@]3(C)C(=CC[C@@H]4[C@@]5(C)CC[C@H](OC(=O)c6ccccc6C(=O)O)C(C)(C)[C@@H]5CC[C@]43C)[C@H]12
IC50 (Transcription factor AP1 [1]): 4000 nM

O=C(Nc1cc(C(F)(F)F)cc(C(F)(F)F)c1)c1cnc(Cl)nc1Cl
IC50 [6]: 600 nM

Cc1nc(Cl)ncc1C(=O)Nc1cc(C(F)(F)F)cc(C(F)(F)F)c1
IC50 [6]: 50 nM

COC(=O)C1=CO[C@@H](O[C@@H]2O[C@H](CO)[C@@H](O)[C@H](O)[C@H]2O)[C@H]2[C@H]1C(C)=C[C@@]2(O)C(=O)O/C=C(\C(=O)O)c1ccc(O)c(OC)c1
IC50 (Transcription factor Jun [3]): 69600 nM

O=C1Nc2cc(C(F)(F)F)ccc2Nc2nc(Cl)ncc21
IC50 (Transcription factor Jun [2]): 10000 nM

O=C(c1cnc(Cl)nc1C(F)(F)F)N1COCc2ccc(C(F)(F)F)cc21
IC50 (Transcription factor Jun [2]): 10000 nM

CC1=CC(=O)N(Nc2ncc(C(=O)c3ccccc3)c(C(F)(F)F)n2)C1=O
IC50 (Transcription factor Jun [2]): 98 nM

Source: ChEMBL document CHEMBL3352097, “Small molecule inhibitors targeting activator protein 1 (AP-1)” (J Med Chem, 2014)
